Data on one molecule can be found in ChEMBL document CHEMBL1148617, “Design, synthesis, and structure-activity relationships of 1-,3-,8-, and 9-substituted-9-deazaxanthines at the human A2B adenosine receptor” (J Med Chem, 2006).

The structures appear in SMILES notation. pKi: −log10 of the molar value.

One assay deals with Adenosine receptor A2a (Rattus norvegicus, UniProt P30543). In words: Binding affinity to rat adenosine A2A receptor.
The target of a further assay is T1, Adenosine receptor A1 (Rattus norvegicus, UniProt P25099).
T1 sequence (P25099 whole entry): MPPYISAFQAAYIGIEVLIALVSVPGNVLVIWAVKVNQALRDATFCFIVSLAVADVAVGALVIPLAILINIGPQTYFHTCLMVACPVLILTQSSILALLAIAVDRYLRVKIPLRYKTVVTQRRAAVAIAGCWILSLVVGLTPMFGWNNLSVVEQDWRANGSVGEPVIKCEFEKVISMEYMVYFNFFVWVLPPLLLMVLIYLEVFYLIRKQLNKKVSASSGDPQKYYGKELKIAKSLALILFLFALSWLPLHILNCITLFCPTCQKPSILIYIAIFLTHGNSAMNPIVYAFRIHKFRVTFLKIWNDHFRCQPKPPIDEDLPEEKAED
In words: Binding affinity to rat adenosine A1 receptor.

The target in a further assay is T2, Adenosine receptor A3 (Homo sapiens, UniProt P0DMS8).
T2 sequence (P0DMS8 whole entry): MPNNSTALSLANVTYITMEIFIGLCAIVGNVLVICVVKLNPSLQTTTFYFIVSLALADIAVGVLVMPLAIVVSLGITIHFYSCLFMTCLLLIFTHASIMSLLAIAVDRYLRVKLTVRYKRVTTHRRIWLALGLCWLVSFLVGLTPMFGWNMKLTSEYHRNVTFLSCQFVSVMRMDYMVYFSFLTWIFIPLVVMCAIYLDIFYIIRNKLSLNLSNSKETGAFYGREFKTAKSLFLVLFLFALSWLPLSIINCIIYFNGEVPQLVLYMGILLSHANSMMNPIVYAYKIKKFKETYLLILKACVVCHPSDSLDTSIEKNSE

Chain of Adenosine receptor A2a (P30543 whole entry): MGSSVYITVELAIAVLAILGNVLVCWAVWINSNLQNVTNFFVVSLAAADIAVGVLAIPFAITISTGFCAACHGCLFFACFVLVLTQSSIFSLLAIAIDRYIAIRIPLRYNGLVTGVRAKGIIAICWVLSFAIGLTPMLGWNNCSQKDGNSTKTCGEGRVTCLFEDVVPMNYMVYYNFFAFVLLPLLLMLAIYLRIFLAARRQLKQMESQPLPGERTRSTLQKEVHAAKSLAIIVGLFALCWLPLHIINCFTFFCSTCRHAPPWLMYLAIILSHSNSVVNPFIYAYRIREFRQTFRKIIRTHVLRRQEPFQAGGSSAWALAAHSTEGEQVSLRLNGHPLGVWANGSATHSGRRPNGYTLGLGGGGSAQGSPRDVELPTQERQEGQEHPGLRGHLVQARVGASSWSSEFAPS
Description for Adenosine receptor A3: Binding affinity to recombinant human adenosine A3 receptor

By pKi is commonly meant the Ki on a negative log10 scale, so that one unit is a factor of ten. A low value points to a large Ki. In the case of `CCCn1c(=O)c2[nH]c(-c3ccc(OCC(=O)O)cc3)nc2n(CCC)c1=O`, the pKi was 5.65 on Adenosine receptor A2a, 7.20 on Adenosine receptor A1 and 5.40 on Adenosine receptor A3.
